US4906755A, “Esters of hexahydro-8-hydroxy-2,6-methano-2H-quinolizin-3-(4H)-one and related compounds” (Merrell Dow Pharmaceuticals Inc., priority 1989, dated 1990)
Where a name gives a salt, the structure may show the parent alone.

Tests used:
[1] = double-blind clinical trial (Loisy et al. 1985); cited from earlier work
[2] = animal experimental model (Miner et al.; Costall et al. 1986); cited from earlier work
5-HT M-receptor = conditions: 5-HT receptor antagonism; literature values (Fozard et al.); cited from earlier work
[3] = slow intravenous injection, 10 mg; cited from earlier work
[4] = system: Von Bezold-Jarisch Reflex induced by 5-HT; test: Von Bezold-Jarisch Reflex induced by 5-HT injected intravenously into the rat; type: in vivo
Description: The activity of these compounds against 5-HT can be assessed in vivo by measurement of the effect of the compound on the Von Bezold-Jarisch Reflex induced by 5-HT injected intravenously into the rat (see Paintal A. S., Physiol. Rev., 53, 159-227 […]; J. R. Fozard, Naunyn-Schmiedeberg's Arch. Pharmacol., 326, (1984) 36-44). The transient cardiac slowing arises from an increased afferent vagus activity arising from stimulation by 5-HT of sensory afferent fibers in and around the heart.

[5] = doses of 0.01-0.1 mg/kg given intravenously
[6] = doses of 0.25-1 mg/kg given orally

CN1[C@@H]2CC[C@H]1C[C@@H](OC(=O)c1cc(Cl)cc(Cl)c1)C2 [3,5-dichlorobenzoyltropine]
treatment of the acute migraine attack [1]: proved an effective treatment
prevention of nausea and vomiting induced by cancer chemotherapeutic agents [2]: highly effective

CN1[C@@H]2CC[C@H]1C[C@@H](OC(=O)c1ccccc1)C2 [benzoyltropine]
pA2 (5-HT M-receptor): 7.2

CN1[C@@H]2CC[C@H]1C[C@H](OC(=O)c1ccccc1)C2 [pseudotropyl benzoate]
pA2 (5-HT M-receptor): 7.0

CCN(CC)CCNC(=O)c1cc(Cl)c(N)cc1OC [metoclopramide]
pA2 (5-HT M-receptor): 7.2
relief of an acute migraine attack [3]: immediate relief
prevention of nausea and vomiting induced by cancer chemotherapeutic agents [2]: highly effective

O=C(O[C@@H]1C[C@@H]2C[C@@H]3C[C@H](C1)N2CC3=O)c1c[nH]c2ccccc12 [endo-hexahydro-8-(3-indolylcarbonyloxy)-2,6-methano-2H-quinolizin-3(4H)onehydrochloride]
suppression of the Von Bezold-Jarisch Reflex response [4, 5]: suppressed the response dose-dependently
suppression of the Von Bezold-Jarisch Reflex response [4, 6]: suppressed the response dose-dependently

Cc1cc(C)cc(C(=O)O[C@@H]2C[C@@H]3C[C@@H]4C[C@H](C2)N3CC4=O)c1 [endo-8-(3,5-dimethylbenzoyloxy)hexahydro-2,6-methano-2H-quinolizin3(4H)-one]
suppression of the Von Bezold-Jarisch Reflex response [4, 5]: suppressed the response dose-dependently
suppression of the Von Bezold-Jarisch Reflex response [4, 6]: suppressed the response dose-dependently

CN1[C@@H]2CC[C@H]1C[C@@H](OC(=O)c1c[nH]c3ccccc13)C2 [(3α-tropanyl)-lH-indole-3-carboxylic acid ester]
prevention of nausea and vomiting induced by cancer chemotherapeutic agents [2]: highly effective

COC(=O)[C@H]1[C@@H](OC(=O)c2ccccc2)C[C@@H]2CC[C@H]1N2 [nor (-) cocaine]
pA2 (5-HT M-receptor): 7.7
